Assay results reported in patent US11673883B2, “Heterocyclic compounds as immunomodulators” (Incyte Corporation, priority 2016, dated 2023).

Biological target: PD-1/PD-L1 protein/protein interaction (Homo sapiens (Human), UniProt Q9NZQ7)
Test: PD-1/PD-L1 Homogeneous Time-Resolved Fluorescence (HTRF) Binding Assay
Details: recombinant human PD-L1 (19-238) His-tag, human PD-1 (25-167) Fc tag; 25° C., PBS pH 7.4
Protocol: Example A. PD-1/PD-L1 Homogeneous Time-Resolved Fluorescence (HTRF) Binding Assay
The assays were conducted in a standard black 384-well polystyrene plate with a final volume of 20 μL. Inhibitors were first serially diluted in DMSO and then added to the plate wells before the addition of other reaction components. The final concentration of DMSO in the assay was 1%. The assays were carried out at 25° C. in the PBS buffer (pH 7.4) with 0.05% Tween-20 and 0.1% BSA. Recombinant human PD-L1 protein (19-238) with a His-tag at the C-terminus was purchased from AcroBiosystems (PD1-H5229). Recombinant human PD-1 protein (25-167) with Fc tag at the C-terminus was also purchased from AcroBiosystems (PD1-H5257). PD-L1 and PD-1 proteins were diluted in the assay buffer and […] was added to the plate well. Plates were centrifuged and proteins were preincubated with inhibitors for 40 minutes. The incubation was followed by the addition of 10 μL of HTRF detection buffer supplemented with Europium cryptate-labeled anti-human IgG (PerkinElmer-AD0212) specific for Fc and anti-His antibody conjugated to SureLight®-Allophycocyanin (APC, PerkinElmer-AD0059H). After centrifugation, the plate was incubated at 25° C. for 60 min. before reading on a PHERAstar FS plate reader (665 nm/620 nm ratio). Final concentrations in the assay were […], 10 nM PD-L1, 1 nM europium anti-human IgG and 20 nM anti-His-Allophycocyanin. IC50 determination was performed by fitting the curve of percent control activity versus the log of the inhibitor concentration using the GraphPad Prism 5.0 software.

Sequence of PD-1/PD-L1 protein/protein interaction (Q9NZQ7 19-238): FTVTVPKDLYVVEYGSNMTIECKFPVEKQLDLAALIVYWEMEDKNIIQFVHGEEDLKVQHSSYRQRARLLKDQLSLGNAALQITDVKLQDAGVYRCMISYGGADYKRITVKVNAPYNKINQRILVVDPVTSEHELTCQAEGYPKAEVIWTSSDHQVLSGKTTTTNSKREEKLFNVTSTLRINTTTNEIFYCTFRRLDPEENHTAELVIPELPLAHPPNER

Row | SMILES | IC50 [µM]
1 | N#Cc1c(-c2ccc3c(c2)OCCO3)cccc1N1CCC(N[C@H]2C[C@H](CO)C2)CC1 [Example 23, 2-(2,3-dihvdrobenzo[b][1,4]dioxin-6-yl)-6-(4-(trans-3-(hydroxymethyl)cyclobutyl-amino)piperidin-1-yl)benzonitrile] | ≤ 0.1
2 | N#Cc1c(-c2ccc3c(c2)OCCO3)cccc1N1CCC(N[C@H]2CC[C@H](O)CC2)CC1 [Example 24, 2-(2,3-dihydrobenzo[b][1,4]dioxin-6-yl)-6-(4-(trans-4-hydroxycyclohexylamino)piperidin-1-yl)benzonitrile] | ≤ 0.1
3 | Cc1c(-c2ccccc2)cccc1N1CCC(NCC2(CO)CC2)CC1 [Example 26, (1-((1-(2-methylbiphenyl-3-yl)piperidin-4-ylamino)methyl)cyclopropyl)methanol] | ≤ 0.1
4 | Cc1c(-c2ccccc2)cccc1N1CCC(NCC(=O)N2CCN(C(C)C)CC2)CC1 [Example 27, 1-(4-isopropylpiperazin-1-yl)-2-(1-(2-methylbiphenyl-3-yl)piperidin-4-ylamino)ethanone] | 0.1 to 0.5
5 | Cc1c(-c2ccccc2)cccc1N1CCC(N[C@H]2C[C@H](O)C2)CC1 [Example 28, trans-3-(1-(2-methylbiphenyl-3-yl)piperidin-4-ylamino)cyclobutanol] | ≤ 0.1
6 | Cc1c(-c2ccccc2)cccc1N1CCC(N[C@H]2C[C@@H](O)C2)CC1 [Example 29, cis-3-(1-(2-methylbiphenyl-3-yl)piperidin-4-ylamino)cyclobutanol] | ≤ 0.1
7 | Cc1c(-c2ccccc2)cccc1N1CCC(N[C@H]2CC[C@H](O)CC2)CC1 [Example 30, trans-4-(1-(2-methylbiphenyl-3-yl)piperidin-4-ylamino)cyclohexanol] | ≤ 0.1
8 | Cc1c(-c2ccccc2)cccc1N1CCC(N[C@H]2CC[C@@H](O)CC2)CC1 [Example 33, cis-4-(1-(2-methylbiphenyl-3-yl)piperidin-4-ylamino)cyclohexanol] | ≤ 0.1
9 | CC[C@H](CO)NC1CCN(c2cccc(-c3ccccc3)c2C)CC1 [Example 35, (R)-2-(1-(2-methylbiphenyl-3-yl)piperidin-4-ylamino)butan-l-ol] | ≤ 0.1
10 | Cc1c(-c2ccccc2)cccc1N1CCC(NC2CC2)CC1 [Example 36, N-cyclopropyl-1-(2-methylbiphenyl-3-yl)piperidin-4-amine] | ≤ 0.1
11 | Cc1c(-c2ccccc2)cccc1N1CCC(NC2CCCC2)CC1 [Example 37, N-cyclopentyl-1-(2-methylbiphenyl-3-yl)piperidin-4-amine] | ≤ 0.1
12 | Cc1c(-c2ccccc2)cccc1N1CCC(NC2CCC(CC#N)CC2)CC1 (centres unmarked) [Example 39, 2-(4-(1-(2-methylbiphenyl-3-yl)piperidin-4-ylamino)cyclohexyl) acetonitrile] | ≤ 0.1
13 | Cc1c(-c2ccccc2)cccc1N1CCC(NC2CC(CO)C2)CC1 (centres unmarked) [Example 43, (3-(1-(2-methylbiphenyl-3-yl)piperidin-4-ylamino)cyclobutyl) methanol] | ≤ 0.1
14 | Cc1c(-c2ccccc2)cccc1N1CCC(NC2CC(C(=O)O)C2)CC1 (centres unmarked) [Example 45, 3-(1-(2-methylbiphenyl-3-yl)piperidin-4-ylamino)cyclobutane-carboxylic acid] | ≤ 0.1
15 | N#Cc1c(-c2cccc(F)c2)cccc1N1CCC(N2CCCC2)CC1 [Example 49, 3′-fluoro-3-(4-(pyrrolidin-1-yl)piperidin-1-yl)biphenyl-2-carbonitrile] | ≤ 0.1
16 | N#Cc1c(C2=CCCCC2)cccc1N1CCC(N2CCCC2)CC1 [Example 50, 2-cyclohexenyl-6-(4-(pyrrolidin-1-yl)piperidin-1-yl)benzonitrile] | ≤ 0.1

Continued, values first:

Row | IC50 [µM] | SMILES
17 | ≤ 0.1 | CC(O)C1CCN(C2CCN(c3cccc(-c4ccc5c(c4)OCCO5)c3C#N)CC2)C1 (centres unmarked) [Example 21, 2-(2,3-dihydrobenzo[b][1,4]dioxin-6-yl)-6-(4-(3-(1-hydroxyethyl)pyrrolidin-1-yl)piperidin-1-yl)benzonitrile]
18 | ≤ 0.1 | CC1(NC2CCN(c3cccc(-c4ccc5c(c4)OCCO5)c3C#N)CC2)CC1 [Example 22, 2-(2,3-dihydrobenzo[b][1,4]dioxin-6-yl)-6-(4-(1-methylcyclopropylamino)piperidin-1-yl)benzonitrile]
19 | ≤ 0.1 | N#Cc1c(-c2ccc3c(c2)OCCO3)cccc1N1CCC(N2CCC(CO)C2)CC1 (centres unmarked) [Example 25, 2-(2,3-dihydrobenzo[b][1,4]dioxin-6-yl)-6-(4-(3-(hydroxymethyl)pyrrolidin-1-yl)piperidin-1-yl)benzonitrile]
20 | ≤ 0.1 | Cc1c(-c2ccccc2)cccc1N1CCC(NCCc2cnn(C)c2)CC1 [Example 31, N-(2-(1-methyl-1H-pyrazol-4-yl)ethyl)-1-(2-methylbiphenyl-3-yl)piperidin-4-amine]
21 | ≤ 0.1 | Cc1c(-c2ccccc2)cccc1N1CCC(N2CCCC2)CC1 [Example 32, 1-(2-methylbiphenyl-3-yl)-4-(pyrrolidin-1-yl)piperidine]
22 | 0.1 to 0.5 | COc1cccc(-c2cccc(N3CCC(N4CCCC4)CC3)c2C#N)c1 [Example 48, 3′-methoxy-3-(4-(pyrrolidin-1-yl)piperidin-1-yl)biphenyl-2-carbonitrile]
23 | 0.1 to 0.5 | N#Cc1c(C2CCCCC2)cccc1N1CCC(N2CCCC2)CC1 [Example 51, 2-cyclohexyl-6-(4-(pyrrolidin-1-yl)piperidin-1-yl)benzonitrile]
